The target in one data set is T1, yeast Rtt109–Vps75 (Saccharomyces cerevisiae, UniProt Q07794).
T1 sequence (Q07794 1-436): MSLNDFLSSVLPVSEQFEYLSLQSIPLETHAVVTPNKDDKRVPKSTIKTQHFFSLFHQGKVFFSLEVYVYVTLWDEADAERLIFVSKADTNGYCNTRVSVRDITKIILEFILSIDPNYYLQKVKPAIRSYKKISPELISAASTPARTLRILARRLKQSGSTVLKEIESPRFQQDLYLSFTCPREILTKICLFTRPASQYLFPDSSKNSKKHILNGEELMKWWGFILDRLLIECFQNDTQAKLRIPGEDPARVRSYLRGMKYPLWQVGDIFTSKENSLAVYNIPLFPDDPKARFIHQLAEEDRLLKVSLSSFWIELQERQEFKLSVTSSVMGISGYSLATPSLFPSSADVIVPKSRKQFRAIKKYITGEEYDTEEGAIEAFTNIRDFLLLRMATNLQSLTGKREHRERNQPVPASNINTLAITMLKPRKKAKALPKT
T1 sequence (P53853 1-264 partner): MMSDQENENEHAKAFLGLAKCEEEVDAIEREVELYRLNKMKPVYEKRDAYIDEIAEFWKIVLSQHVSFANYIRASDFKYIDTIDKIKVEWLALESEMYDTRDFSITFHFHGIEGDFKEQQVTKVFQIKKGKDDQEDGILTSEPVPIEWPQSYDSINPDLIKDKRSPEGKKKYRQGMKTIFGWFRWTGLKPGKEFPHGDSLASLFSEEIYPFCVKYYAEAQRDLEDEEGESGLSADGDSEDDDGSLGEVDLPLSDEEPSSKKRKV
Briefly: [3H]-acetyl-CoA HAT assay, Rtt109. In kind it is biochemical. Conditions: 1 mM DTT; results similar versus Rtt109-Vps75, p300, and Gcn5.

Another data set has as its target T2, human La antigen (Homo sapiens, UniProt P05455).
T2 sequence (P05455 100-324): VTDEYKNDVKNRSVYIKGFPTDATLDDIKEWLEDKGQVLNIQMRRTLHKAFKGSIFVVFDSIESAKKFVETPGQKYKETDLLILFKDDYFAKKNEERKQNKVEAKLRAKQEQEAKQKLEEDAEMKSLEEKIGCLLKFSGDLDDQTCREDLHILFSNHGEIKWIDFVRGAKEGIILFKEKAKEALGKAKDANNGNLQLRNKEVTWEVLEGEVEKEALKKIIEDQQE
Briefly: ALARM NMR. In kind it is binding. Particulars: for ALARM NMR reactivity: 200 μM test compounds, absence of DTT, prevented by 20 mM DTT; for La protein conformation in ALARM NMR: without the inclusion of DTT.

The target of a further data set is T3, yeast Rtt109 (Saccharomyces cerevisiae, UniProt Q07794).
T3 sequence (Q07794 1-436): T1 sequence (Q07794 1-436)
T3 sequence (P53853 1-264 partner): T1 sequence (P53853 1-264 partner)
In words: Protein mass spectrometry. In kind it is binding. Particulars: 100 μM compound, 10 μM protein, 30 °C, 60 min; LC–MS/MS.

Data set [1] in a line: Stability in HTS buffer by UPLC–MS. The data set is classed as physicochemical. Particulars: HTS buffer pH 8.0, UPLC–MS.
A further data set deals with T4, yeast Vps75 (Saccharomyces cerevisiae, UniProt P53853).
T4 sequence (P53853 1-264): T1 sequence (P53853 1-264 partner)
T4 sequence (Q07794 1-436 partner): T1 sequence (Q07794 1-436)
Briefly: Protein mass spectrometry. In kind it is binding. Particulars: 100 μM compound, 10 μM protein, 30 °C, 60 min; LC–MS/MS.

This is an account of results in article PMC4360378 (Journal of Medicinal Chemistry, 2015).

As to `O=C(O)c1ccc(-n2nnnc2SC2=CS(=O)(=O)c3ccccc32)cc1` [1a], the “(+) DTT IC50 effect” value on yeast Rtt109–Vps75 is on record as “increase”. For the same molecule, the “ALARM NMR reactivity” value at human La antigen is on record as “covalently modify cysteines”. Also, the “Peptide adduct detected, Rtt109” value on yeast Rtt109 is “forms a detectable adduct with C94”.
With `O=[N+]([O-])c1cc(Br)c2nsnc2c1Sc1ncnc2[nH]cnc12` [2a], the “(+) DTT IC50 effect” value at yeast Rtt109–Vps75 is listed as “increase”. Moreover, the “ALARM NMR reactivity” value on human La antigen is “covalently modify cysteines”. Besides, the “stability in HTS buffer” value in data set [1] is reported as “stable”.
On to `O=[N+]([O-])c1c(Sc2nnnn2-c2ccccc2)cc(Cl)c2nonc12` [2e], for which the “(+) DTT IC50 effect” value on yeast Rtt109–Vps75 is “increase”.
For `CNc1nc(-c2ccccc2)[n+](-c2ccccc2)s1.[Cl-]` [3a], the “ALARM NMR reactivity” value on human La antigen is “covalently modify cysteines”.
Turning to `O=C1CC(Sc2nnc(-c3ccccc3O)o2)C(=O)N1c1ccc(Br)cc1` (stereo not shown) [4a], at yeast Rtt109–Vps75, the “(+) DTT IC50 effect” value is given as “increase”. The “ALARM NMR reactivity” value on human La antigen is listed as “covalently modify cysteines”. Also, in data set [1], the “stability in HTS buffer” value is “thiol leaving groups (e.g., 4a″) were detected”.
On to `O=C(O)CCSc1cc(NS(=O)(=O)c2ccc(Br)cc2)c2ccccc2c1O` [6a], for which, on yeast Rtt109–Vps75, the “(+) DTT IC50 effect” value is given as “increase”. Besides, the “Peptide adduct detected, Vps75” value on yeast Vps75 is “forms a detectable adduct with mono-oxidized C21”. Moreover, at human La antigen, the “ALARM NMR reactivity” value is recorded as “covalently modify cysteines” and the “La protein conformation in ALARM NMR” value is “strongly perturbed”.
In the case of `O=S(=O)(Nc1cc(Sc2ncn[nH]2)c(O)c2ccccc12)c1ccc2ccccc2c1` [6b], at human La antigen, the “ALARM NMR reactivity” value was “covalently modify cysteines” and the “La protein conformation in ALARM NMR” value is given as “strongly perturbed”.
With `O=C(O)CSc1cc(NS(=O)(=O)c2ccc(C(=O)O)cc2)c2ccccc2c1O` [6c], the “(+) DTT IC50 effect” value on yeast Rtt109–Vps75 was “increase”.
On to `O=S(=O)(Nc1cc(Cl)c(O)c2ccccc12)c1ccc(Br)cc1` [6e], for which, at yeast Rtt109–Vps75, the “(+) DTT IC50 effect” value is “increase”.
Take `O=C(O)CSc1cc(NS(=O)(=O)c2ccc(Br)cc2)c2ccccc2c1O` [6y]: the “(+) DTT IC50 effect” value at yeast Rtt109–Vps75 was “increase”.
`CCN(CC)c1ccc2c(C)c(-c3ccc(N4C(=O)C=CC4=O)cc3)c(=O)oc2c1` [CPM, N-[4-(7-diethylamino-4-methylcoumarin-3-yl)phenyl]maleimide, reference compound]: on yeast Rtt109–Vps75, the “(+) DTT IC50 effect” value is given as “increase”.
Take `OC(Cn1cncn1)(Cn1cncn1)c1ccc(F)cc1F` [fluconazole, reference compound]: at yeast Rtt109–Vps75, the “(+) DTT IC50 effect” value is on record as “none”.
